# Data taken from paper PMC6917776, “Discovery of a chemical probe for PRDM9” (Nature Communications, 2019).
# Legend:
# HCC1806 = assay: CelltiterGlo viability cell assay; type: cell-based
# Protocol: (§1) Supplementary Figure 13. […] Viability of
# (§2) (a) Multiple Myeloma lines and (b) Breast Cancer cell lines following 3 or 6 days treatment with […]
# (§3) manufacturer’s instructions as described in the Supplementary methods. Data are normalized to DMSO control. N=3 biological replicates, +/- SEM. Source data are provided as a Source Data […]
# (§4) CelltiterGlo viability cell assay
# (§5) Cells were seeded in 96 well plates at per-well densities of 10000 (MDA-MB436, ATCC-HTB130), 15000 (8226, kind gift from Rodger Tiedemann, Princess Margaret Cancer Centre), […]
# (§6) kind gift from Rodger Tiedemann, Princess Margaret Cancer Centre) and 50000 (CAL851, kind gift from Mathieu Lupien, Princess Margaret Cancer Centre) and were treated at increasing concentrations of compounds ranging from 0.01 μM to 30 μM and assessed for proliferation using CelltiterGlo (Promega) following manufacturer’s instructions, as readout on days 3 and 6 as indicated. All cell lines were mycoplasma negative, as determined by MycoAlert™ Mycoplasma Detection Kit(Lonza). […]
# MDA-MB-436 = assay: CelltiterGlo viability cell assay; type: cell-based
# Protocol: as §1, §2, §3, §4, §5, §6
compound,measurement,setting,value
COc1cc(OC)cc(-c2noc(N3CCN(C)C4(CCN(c5ccccc5)CC4)C3)n2)c1 [MRK-740N],viability Average,"HCC1806; HCC1806, 3 day, 0.01 uM",114.56
same,viability Replicate 1,"HCC1806; HCC1806, 3 day, 0.01 uM",108.66
same,viability Replicate 2,"HCC1806; HCC1806, 3 day, 0.01 uM",106.14
same,viability Replicate 3,"HCC1806; HCC1806, 3 day, 0.01 uM",128.88
same,viability Average,"HCC1806; HCC1806, 3 day, 0.03 uM",112.72
same,viability Replicate 1,"HCC1806; HCC1806, 3 day, 0.03 uM",107.72
same,viability Replicate 2,"HCC1806; HCC1806, 3 day, 0.03 uM",100.89
same,viability Replicate 3,"HCC1806; HCC1806, 3 day, 0.03 uM",129.55
same,viability Average,"HCC1806; HCC1806, 3 day, 0.1 uM",114.82
same,viability Replicate 1,"HCC1806; HCC1806, 3 day, 0.1 uM",110.69
same,viability Replicate 2,"HCC1806; HCC1806, 3 day, 0.1 uM",103.88
same,viability Replicate 3,"HCC1806; HCC1806, 3 day, 0.1 uM",129.88
same,viability Average,"HCC1806; HCC1806, 3 day, 0.3 uM",114.56
same,viability Replicate 1,"HCC1806; HCC1806, 3 day, 0.3 uM",110.72
same,viability Replicate 2,"HCC1806; HCC1806, 3 day, 0.3 uM",101.60
same,viability Replicate 3,"HCC1806; HCC1806, 3 day, 0.3 uM",131.35
same,viability Average,"HCC1806; HCC1806, 3 day, 1 uM",117.58
same,viability Replicate 1,"HCC1806; HCC1806, 3 day, 1 uM",111.18
same,viability Replicate 2,"HCC1806; HCC1806, 3 day, 1 uM",107.64
same,viability Replicate 3,"HCC1806; HCC1806, 3 day, 1 uM",133.91
same,viability Average,"HCC1806; HCC1806, 3 day, 3 uM",114.75
same,viability Replicate 1,"HCC1806; HCC1806, 3 day, 3 uM",110.32
same,viability Replicate 2,"HCC1806; HCC1806, 3 day, 3 uM",101.81
same,viability Replicate 3,"HCC1806; HCC1806, 3 day, 3 uM",132.12
same,viability Average,"HCC1806; HCC1806, 3 day, 9.5 uM",100.22
same,viability Replicate 1,"HCC1806; HCC1806, 3 day, 9.5 uM",94.76
same,viability Replicate 2,"HCC1806; HCC1806, 3 day, 9.5 uM",91.96
same,viability Replicate 3,"HCC1806; HCC1806, 3 day, 9.5 uM",113.95
same,viability Average,"HCC1806; HCC1806, 3 day, 30 uM",31.36
same,viability Replicate 1,"HCC1806; HCC1806, 3 day, 30 uM",29.97
same,viability Replicate 2,"HCC1806; HCC1806, 3 day, 30 uM",27.69
same,viability Replicate 3,"HCC1806; HCC1806, 3 day, 30 uM",36.41
same,viability Average,"HCC1806; HCC1806, 6 day, 0.03 uM",104.14
same,viability Replicate 1,"HCC1806; HCC1806, 6 day, 0.03 uM",102.41
same,viability Replicate 2,"HCC1806; HCC1806, 6 day, 0.03 uM",102.60
same,viability Replicate 3,"HCC1806; HCC1806, 6 day, 0.03 uM",107.42
same,viability Average,"HCC1806; HCC1806, 6 day, 0.1 uM",107.97
same,viability Replicate 1,"HCC1806; HCC1806, 6 day, 0.1 uM",107.96
same,viability Replicate 2,"HCC1806; HCC1806, 6 day, 0.1 uM",108.22
same,viability Replicate 3,"HCC1806; HCC1806, 6 day, 0.1 uM",107.74
same,viability Average,"HCC1806; HCC1806, 6 day, 0.3 uM",112.99
same,viability Replicate 1,"HCC1806; HCC1806, 6 day, 0.3 uM",109.14
same,viability Replicate 2,"HCC1806; HCC1806, 6 day, 0.3 uM",116.56
same,viability Replicate 3,"HCC1806; HCC1806, 6 day, 0.3 uM",113.26
same,viability Average,"HCC1806; HCC1806, 6 day, 1 uM",115.10
same,viability Replicate 1,"HCC1806; HCC1806, 6 day, 1 uM",111.79
same,viability Replicate 2,"HCC1806; HCC1806, 6 day, 1 uM",117.79
same,viability Replicate 3,"HCC1806; HCC1806, 6 day, 1 uM",115.71
same,viability Average,"HCC1806; HCC1806, 6 day, 3 uM",114.65
same,viability Replicate 1,"HCC1806; HCC1806, 6 day, 3 uM",112.70
same,viability Replicate 2,"HCC1806; HCC1806, 6 day, 3 uM",114.15
same,viability Replicate 3,"HCC1806; HCC1806, 6 day, 3 uM",117.09
same,viability Average,"HCC1806; HCC1806, 6 day, 9.5 uM",110.91
same,viability Replicate 1,"HCC1806; HCC1806, 6 day, 9.5 uM",107.82
same,viability Replicate 2,"HCC1806; HCC1806, 6 day, 9.5 uM",111.79
same,viability Replicate 3,"HCC1806; HCC1806, 6 day, 9.5 uM",113.11
same,viability Average,"HCC1806; HCC1806, 6 day, 30 uM",35.99
same,viability Replicate 1,"HCC1806; HCC1806, 6 day, 30 uM",27.63
same,viability Replicate 2,"HCC1806; HCC1806, 6 day, 30 uM",38.19
same,viability Replicate 3,"HCC1806; HCC1806, 6 day, 30 uM",42.14
same,viability Average,"MDA-MB-436; MDA MB436, 3 day, 0.01 uM",104.47
same,viability Replicate 1,"MDA-MB-436; MDA MB436, 3 day, 0.01 uM",104.85
same,viability Replicate 2,"MDA-MB-436; MDA MB436, 3 day, 0.01 uM",108.92
same,viability Replicate 3,"MDA-MB-436; MDA MB436, 3 day, 0.01 uM",99.63
same,viability Average,"MDA-MB-436; MDA MB436, 3 day, 0.03 uM",103.60
same,viability Replicate 1,"MDA-MB-436; MDA MB436, 3 day, 0.03 uM",101.98
same,viability Replicate 2,"MDA-MB-436; MDA MB436, 3 day, 0.03 uM",106.92
same,viability Replicate 3,"MDA-MB-436; MDA MB436, 3 day, 0.03 uM",101.91
same,viability Average,"MDA-MB-436; MDA MB436, 3 day, 0.1 uM",104.90
same,viability Replicate 1,"MDA-MB-436; MDA MB436, 3 day, 0.1 uM",108.03
same,viability Replicate 2,"MDA-MB-436; MDA MB436, 3 day, 0.1 uM",99.50
same,viability Replicate 3,"MDA-MB-436; MDA MB436, 3 day, 0.1 uM",107.16
same,viability Average,"MDA-MB-436; MDA MB436, 3 day, 0.3 uM",109.23
same,viability Replicate 1,"MDA-MB-436; MDA MB436, 3 day, 0.3 uM",113.13
same,viability Replicate 2,"MDA-MB-436; MDA MB436, 3 day, 0.3 uM",103.55
same,viability Replicate 3,"MDA-MB-436; MDA MB436, 3 day, 0.3 uM",111.02
same,viability Average,"MDA-MB-436; MDA MB436, 3 day, 1 uM",109.50
same,viability Replicate 1,"MDA-MB-436; MDA MB436, 3 day, 1 uM",114.19
same,viability Replicate 2,"MDA-MB-436; MDA MB436, 3 day, 1 uM",107.46
same,viability Replicate 3,"MDA-MB-436; MDA MB436, 3 day, 1 uM",106.85
same,viability Average,"MDA-MB-436; MDA MB436, 3 day, 3 uM",108.81
same,viability Replicate 1,"MDA-MB-436; MDA MB436, 3 day, 3 uM",105.69
same,viability Replicate 2,"MDA-MB-436; MDA MB436, 3 day, 3 uM",108.01
same,viability Replicate 3,"MDA-MB-436; MDA MB436, 3 day, 3 uM",112.73
same,viability Average,"MDA-MB-436; MDA MB436, 3 day, 9.5 uM",105.69
same,viability Replicate 1,"MDA-MB-436; MDA MB436, 3 day, 9.5 uM",111.14
same,viability Replicate 2,"MDA-MB-436; MDA MB436, 3 day, 9.5 uM",101.16
same,viability Replicate 3,"MDA-MB-436; MDA MB436, 3 day, 9.5 uM",104.77
same,viability Average,"MDA-MB-436; MDA MB436, 3 day, 30 uM",65.33
same,viability Replicate 1,"MDA-MB-436; MDA MB436, 3 day, 30 uM",67.81
same,viability Replicate 2,"MDA-MB-436; MDA MB436, 3 day, 30 uM",62.64
same,viability Replicate 3,"MDA-MB-436; MDA MB436, 3 day, 30 uM",65.53
same,viability Average,"MDA-MB-436; MDA MB436, 6 day, 0.01 uM",103.60
same,viability Replicate 1,"MDA-MB-436; MDA MB436, 6 day, 0.01 uM",113.45
